Measurements reported in patent US9877961B2, “Anticoagulant reversal agents” (PEROSPHERE INC., priority 2011, dated 2018).
Entries after “also recorded” stand apart in the source; their conditions may differ.

Key:
[1] = test system: dabigatran (PRADAXA®) anticoagulation; test: DAP reversal of dabigatran (PRADAXA®) anticoagulation in vivo, aPTT; parameters: species or system rat; settings: 15.5 mg/kg PRADAXA®, 100 mg/kg DAP (FIG. 13)
[2] = test system: rivaroxaban anticoagulation; test: Rat tail transection bleeding assay, rivaroxaban; format: in vivo
Protocol: (§1) Rat tail bleeding assay or rat tail transection assay is an assay that measures blood loss, e.g., blood loss after drug administration. In one embodiment, where the effect of the compound of the invention (e.g., DAP) is being tested, at the Tmax of the anticoagulant, DAP is administered intravenously. After 20 minutes, rat tails are transected approximately 1 mm from the tip, placed in room temperature saline, and blood is collected for 30 minutes and weighed.
(§2) Three rats each were administered 2 mg of rivaroxaban. One rat received a sham reversal containing no DAP, the second received 2.5 mg of DAP, and the third received 12.5 mg DAP. A fourth fat received sham anticoagulant and reversal doses (“sham”). 20 minutes after the reversal dose, tails were transected 1 mm from the tip, placed in room temperature saline, and blood loss was collected for 30 minutes and then weighed.

[3] = test system: LMWH (bemiparin) anticoagulation; test: DAP reversal of LMWH (bemiparin) anticoagulation in vivo, aPTT; parameters: species or system rat
From the text: The activated partial thromboplastin time (aPTT) assay is an assay that measures how long it takes for the blood to clot. Blood samples are collected for direct measurement or in tubes with oxalate and citrate to arrest coagulation by calcium until the assay can be performed. In the assay, a phospholipid, an activator (silica, celite, kaolin, ellagic acid, etc.), and calcium are mixed into the plasma to induce coagulation. The assay measures the time until a thrombus (clot) forms.
A male albino rat, weighing 470 g, was administered 10 mg of bemiparin (an overdose of LMWH) by subcutaneous injection. aPTT time was measured over the course of five hours. Four hours after LMWH administration, the rat received an intravenous dose of 200 mg/kg of DAP (100 mg DAP).

[4] = test system: rivaroxaban anticoagulation; test: DAP reversal of rivaroxaban in human plasma ex vivo, Biophen anti-Factor Xa chromogenic assay; format: biochemical
Protocol: The anti-factor Xa assay directly measures anti-factor Xa activity. The methodology behind an anti-factor Xa assay is that patient plasma is added to a known amount of excess factor Xa and excess antithrombin. If a factor Xa inhibitor is present in the patient plasma, it will reduce the enzymatic activity of factor Xa. The amount of residual factor Xa is inversely proportional to the amount of anti-Xa agent in the plasma. The amount of residual factor Xa is detected by adding a chromogenic substrate that mimics the natural substrate of factor Xa, making residual factor Xa cleave it, releasing a colored compound that can be detected by a spectrophotometer. […]
218 μg/L or 459 μg/L of rivaroxaban was added to human plasma, with or without 1,250 μg/L or 6,250 μg/L of DAP, respectively. […] DAP effect on anticoagulation was measured by 510 k cleared Biophen anti-Factor Xa chromogenic assay. Rivaroxaban concentrations were determined by comparison with plasma calibration standards, while apixaban concentrations were inferred from stock solution dilutions as calibration standards are not yet available.
218 μg/L rivaroxaban was added to human plasma either alone or in combination with 1.25, 12.5, 125, or 1,250 μg/L of DAP. Factor Xa activity was measured by 510 k cleared Biophen anti-Xa chromogenic assay kit. Rivaroxaban concentrations were determined by comparison with plasma calibration standards.

[5] = test system: aPTT; test: Intravenous DAP alone, aPTT in the absence of anticoagulants; format: in vivo, rat; settings: 0, 2, 10, 25, 50 or 100 mg DAP i.v., no anticoagulant
Protocol: 0, 2, 10, 25, 50 or 100 mg DAP were administered intravenously to male, weight matched CD rats and aPTT was measured.

[6] = DLS association of DAP with rivaroxaban; format: binding
Protocol: (§3) Rivaroxaban (XARELTO®) alone, DAP alone, and DAP:rivaroxaban combinations at mass ratios of 1:1 and 10:1 were added into an aqueous solution and analyzed by dynamic light scattering (DLS) to assess association of the DAP and rivaroxaban. A similar experiment was conducted on apixaban (ELIQUIS®) alone, DAP alone, and DAP:apixaban combinations at mass ratios of 1:1, 10:1 and 100:1. Fondaparinux (ARIXTRA®) alone, DAP alone, and fondaparinux:DAP combinations at mass ratios of 1:1, 10:1 and 100:1 were similarly tested. LMWH (bemiparin; HIBOR®), alone, DAP alone, and LMWH:DAP combinations at mass ratios of 1:1, 10:1, and 100:1 were also tested. The concentration of LMWH tested was 0.1 mg/ml. Therefore, at 1:1, 0.1 mg/ml DAP was tested, at 10:1, 1 mg/ml was tested, and at 100:1, 10 mg/ml DAP was tested.

[7] = DLS association of DAP with apixaban; format: binding
Protocol: as §3

[8] = test system: plasma proteins; test: Plasma protein binding; format: in vitro ADME; settings: data not shown
[9] = test system: apixaban (ELIQUIS®) anticoagulation; test: Rat tail transection bleeding assay, apixaban; format: in vivo; settings: for blood loss (blood collected over 30 minutes): p<0.01 vs apixaban only
Protocol: as §1, §2
Same procedures were used with 1.25 mg apixaban (ELIQUIS®) alone or in combination with 5 or 12.5 mg DAP; with 15.5 mg dabigatran etexilate (PRADAXA®) alone or in combination with 5 or 12.5 mg DAP; and with 5 mg edoxaban (LIXIANA®) alone or in combination with 12.5 mg DAP.

[10] = Stability of DAP powder: storage at 4° C. and differential scanning calorimetry; format: physicochemical
Protocol: An acetate salt of DAP was prepared as described herein. As described in these examples, DAP solid or powder refers to the acetate salt, while DAP in solution refers to the free base as the salt ionizes in aqueous solution. As described in these examples, the DAP compound used was the compound of Formula VII.
The DAP powder was tested for thermal stability in two ways. DAP was stored at 4° C. for 7 months prior to use. Additionally, the DAP solid was tested by differential scanning calorimetry (DSC) by heating from −20° C. to 200° C., back to −20° C. and again to 200° C.

[11] = rat tail transection, 30 minutes

binding by DLS [6]: directly bound
binding by DLS [7]: directly bound
plasma protein binding [8]: did not appreciably bind
stability to storage as a lyophilized powder ([10]; 4° C.): more than one year
stability of DAP powder on storage ([10]; 4° C., powder (acetate salt)): more than 12 months
Compound: N=C(N)NCCC[C@H](N)C(=O)NCCCN1CCN(CCCNC(=O)[C@@H](N)CCCNC(=N)N)CC1 (stereo in doubt) [DAP, 2-Amino-5-guanidino-pentanoic acid (3-{4-[3-(2-amino-5-guanidino-pentanoylamino)-propyl]-piperazin-1-yl}-propyl)-amide]
time until aPTT returned to normal after DAP [1]: ≤ 30 min
blood loss (blood collected over 30 minutes) ([2]; 2 mg rivaroxaban and 12.5 mg DAP, p<0.05 vs rivaroxaban only): reduced blood loss to sham dose levels
reversal of rivaroxaban, blood loss vs anticoagulant only [2, 11]: statistically significant reduction in blood loss
time until aPTT below baseline after DAP ([3]; 200 mg/kg (100 mg) DAP i.v. four hours after 10 mg bemiparin s.c.): ≤ 60 min
reversal of subcutaneous LMWH anticoagulation in vivo ([3]; rats, aPTT): reversed
effective anticoagulant concentration after DAP ([4]; 218 μg/L rivaroxaban with 1,250 μg/L DAP, 459 μg/L rivaroxaban with 6,250 μg/L DAP): below the minimum effective concentration
dose dependence of rivaroxaban reversal ([4]; 218 μg/L rivaroxaban, 1.25, 12.5, 125, or 1,250 μg/L DAP): dose-responsive trend; also recorded: dose-dependent reversal
influence of DAP on aPTT [5]: did not influence aPTT
blood loss (blood collected over 30 minutes) ([9]; 1.25 mg apixaban and 5 mg DAP): reduced blood loss to sham dose levels
blood loss (blood collected over 30 minutes) ([9]; 1.25 mg apixaban and 12.5 mg DAP): reduced blood loss to sham dose levels
reversal of apixaban, blood loss vs anticoagulant only [9, 11]: reversed; also recorded: statistically significant reduction in blood loss
thermal stability (DSC, stability to sterilization) ([10]; heating from −20° C. to 200° C., twice): survived repeated heating to 200 °C
